We go through one molecule from patent US20080058405A1, “REPLICATING MELATONIN SIGNALING IN A FETUS, NEWBORN OR SUCKLING INFANT” (OREGON HEALTH & SCIENCE UNIVERSITY, priority 2006, published 2008).

The test system of one series is newborn infant. Put plainly: Manipulation of the sleep/wake circadian rhythm of a newborn infant by exogenous melatonin given orally to the nursing mother (suckled or pumped breast milk). The class given is in vivo, human. On the procedure: The following log includes nighttime sleep data of the infant taking nothing else by mouth except thrush medication during about weeks 2-4. […] All melatonin used in this Example was an immediate-release formulation taken by the […] orally.
• Sunday (10 days post-partum, first day of exogenous melatonin administration in breast milk): • At 20:50 […] took 3 mg melatonin orally. At 21:20 breast-fed baby. […] Monday: • At 19:45, […] took 1.05 mg. […] Tuesday: • At 20:30, […] took 0.9 mg and fed at 9. […] Wednesday: • At 20:45, […] took 3 mg. […] Thursday. • […] took 3 mg at 20:45. […] Week 2 Sunday. • […] took 3 mg at 20:30 but ate immediately after. […] Tuesday: • […] took 3 mg at 20:30. […] Wednesday • […] took 3 mg at 20:30. […] Friday • […] took 3 mg at 20:30. […] Saturday: • […] took 3 mg at 20:30. […] Week 3 Sunday: • […] took 3 mg at 15:00. […] Monday • […] took 3 mg at 17:20. […] Tuesday: • […] took 3 mg at 17:00. […] Wednesday: • […] took 1.8 mg at 17:45. […] Thursday: • […] took 3 mg at 17:00. […] Friday: • […] took 3 mg at 20:30. […] Saturday: • […] took 2 mg at 19:15.

The conditions of series [1]: adults, orally-administered melatonin; cited from earlier work.
[2] abbreviates: same maternal dosing, infant fed by breast milk.

The structures appear in SMILES notation. Entries after “also recorded” stand apart in the source; their conditions may differ.

For `COc1ccc2[nH]cc(CCNC(C)=O)c2c1` [melatonin, N-acetyl-5-methoxytryptamine], the “infant sleep period after first feeding with exogenous melatonin in breast milk” value with newborn infant (10 days post-partum, mother took 3 mg orally at 20:50, baby breast-fed at 21:20) is “slept between 22:00 and 04:00”. For the same molecule, the “improvement of colic versus its worst” value in the series with newborn infant (Week 5 Monday, parent took 3 mg at 17:00) was “about 40%”. Moreover, the “sleep of mother and newborn” value in the series on newborn infant (parent took 1.8-12 mg (usually 3 mg) in the evening, sometimes 1-2 mg in the middle of the night or 0.5 mg towards end of night, immediate-release, oral, infant fed by suckling or pumped breast milk) was “better sleep for both mother and newborn”. In addition, in the series with newborn infant (setting [2]), the “actual breast-feeding time during the night” value is “no reduction”; the “development of the infant's independent ability to synchronize to the ambient light/dark cycle” value is “appeared to accelerate development; also recorded: caused early synchronization”; the “evening/nighttime colic in the infant” value is “less evening/nighttime colic”; the “weight gain in the baby” value is given as “steady weight gain; also recorded: excellent on melatonin, better than before melatonin”. Also, the melatonin bioavailability in series [1] is on record as 1-15%.
